{
  "source": "patent US10918687B2",
  "about": "“Kava derived therapeutic compounds and methods of use thereof” (KUALITY HERBCEUTICS LLC, priority 2013, dated 2021)",
  "key": {"[1]": {"test": "A/J mouse safety upon 17-week continuous exposure of (+)-DHM", "format": "in vivo, A/J mice", "conditions": "for adverse effects: 0.5 mg/g of diet (at least 10x minimum effective dose)", "protocol": "After one-week acclimation, A/J mice were weighed and randomized into two groups (five mice in the control group and ten mice in (+)-DHM treatment group). Mice in the control group were maintained on the AIN-93 G diet for three weeks and then switched to the AIN-93 M diet until the end of Week 17. Mice in (+)-DHM treatment group were maintained on the same diet as the control group with supplementation of (+)-DHM at a dose of 0.5 mg/g of diet. Food was replenished twice weekly. Food intake was monitored twice a week and mouse bodyweight was monitored once a week. At the end of Week 8, serum samples from each mouse were prepared from blood collected via a facial vein and analyzed for a panel of clinical chemistry analytes. At the end of Week 17, mice were euthanized by CO2 overdosing. Blood was collected with one portion analyzed for hematology and the other portion processed for serum and analyzed for a full panel of clinical chemistry analytes. Individual animal body weights and major organ weights (lung, liver, heart, spleen and kidney) were recorded. Lung, liver, heart, spleen, kidney and pancreas were fixed in 10% neutral-buffered formalin solution."}, "[2]": {"test_system": "NNK-induced lung tumorigenesis", "test": "NNK-induced lung adenoma formation in A/J mice", "format": "in vivo", "conditions": "for minimum effective dose: dietary dose against NNK-induced lung adenoma formation; for reduction of adenoma multiplicity / reduction of adenoma incidence / adenoma multiplicity: Example 4, Day 119; for adenoma multiplicity: NNK control 13.9±6.9", "protocol": "Female A/J mice, 5-6 weeks of age from the Jackson Laboratory (Bar Harbor, Me.), were handled according to animal welfare protocols approved by IACUC at the University of Minnesota. […] After one-week acclimation, mice were weighed, randomized into different groups and switched to AIN-93G-powdered diet, defined as Day 1. The number of mice in each group was specified in the Result Section. On Day 7 and Day 14, mice in the negative control groups received 0.1 mL physiological saline solution while mice in the other groups received NNK (100 and 67 mg/kg respectively in 0.1 mL of physiological saline solution) via i.p. injection. At the end of Day 21, mice were switched to AIN-93M-powdered diet until the end of the study. Diet consumption was measured twice weekly and bodyweight was monitored weekly. All mice were euthanized with an overdose of carbon dioxide. The lungs were collected and tumors on the surface of the lung were counted.\nData on lung adenoma multiplicity were reported as mean±SD (n=5-40). […] For Experiment 2, unpaired t-test was used for comparison between NNK control and kava treatment groups. Two-sided p-value≤0.05 was considered statistically significant. Data on DNA adducts were reported as mean±SD (n=3). For the time-course study, unpaired […] was used for comparisons between NNK control and kava treatment groups. Two-sided p-value≤0.05 was considered statistically significant: *p<0.05, **p<0.01, and ***p<0.001. For the 24-h time point study, one-way ANOVA was used to compare means.\nAfter one-week acclimation, mice were weighed, randomized into eight groups and switched to the AIN-93 G diet on a date defined as Day 1. The number of mice in each group is specified in the Results Section (FIG. 36). Mice were fed diets supplemented with different compounds at the dose specified in the Results Section during Day 1-Day 14. On Day 7 and Day 14, mice in the negative control group received 0.1 mL of saline solution while mice in the other groups received NNK (100 and 67 mg/kg, respectively, in 0.1 mL of saline solution) via i.p. injection. At the end of Day 21, mice were switched to the AIN-93 M diet until the end of the study. The diet was replenished twice weekly. The diet consumption was measured twice weekly and the bodyweight was monitored weekly. This study was terminated at the end of Day 119. All mice were euthanized with CO2 overdosing."}, "[3]": {"conditions": "0.5 mg/g of diet, Week 17, data not shown"}},
  "note": "“And” between values parts separate entries of the source, which are not always exact repeats. Equal values may be shown once.",
  "data": [
    {"compound": "COC1=CC(=O)O[C@@H](CCc2ccc3c(c2)OCO3)C1", "note": "[DHM, dihydromethysticin]", "values": [
      {"measurement": "adverse effects", "setting": "[1]; 17 weeks", "result": "no adverse effects"},
      {"measurement": "minimum effective dose", "setting": "[2]", "result": "lower than 0.05 mg/g"}
    ]},
    {"compound": "COC1=CC(=O)O[C@@H](CCc2ccc3c(c2)OCO3)C1", "note": "[(+)-DHM, (+)-dihydromethysticin]", "values": [
      {"measurement": "adverse effects", "setting": "[1]; 17 weeks", "result": "did not present with any adverse effects"},
      {"measurement": "food intake vs control", "setting": "[1]; 0.5 mg/g of diet, 17 weeks", "result": "similar"},
      {"measurement": "weekly bodyweight vs control", "setting": "[1]; 0.5 mg/g of diet, 17 weeks", "result": "none of the differences were statistically significant"},
      {"measurement": "full-panel hematology vs control", "setting": "[1]; 0.5 mg/g of diet, Week 17", "result": "None of these parameters were significantly different"},
      {"measurement": "histopathological examination of liver, lung, heart, kidney, spleen and pancreas vs control", "setting": "[1]; [3]", "result": "no significant differences"},
      {"measurement": "serum osmolality and anion gap vs control", "setting": "[1]; [3]", "result": "no differences"},
      {"measurement": "final bodyweight and relative weights of five organs vs control", "setting": "[1]; 0.5 mg/g of diet, Week 17, except for the lung tissues", "result": "not significantly different"},
      {"measurement": "relative lung weight vs control", "setting": "[1]; 0.5 mg/g of diet, Week 17, excluding one control mouse with lung hemorrhage (p=0.10)", "result": "no significant differences"},
      {"measurement": "serum clinical chemistry (ALP, ALT, AST, BUN, albumin, total bilirubin, CK, glucose, cholesterol, amylase) vs control", "setting": "[1]; 0.5 mg/g of diet, end of Week 8", "result": "No significant differences"},
      {"measurement": "serum clinical chemistry vs control", "setting": "[1]; 0.5 mg/g of diet, end of Week 17", "result": "no significant differences"},
      {"measurement": "reduction of adenoma multiplicity", "setting": "[2]; 0.05 mg/g of diet (50 ppm) Day 1-Day 14", "result": "97% and 97.1%"},
      {"measurement": "reduction of adenoma incidence", "setting": "[2]; 0.05 mg/g of diet Day 1-Day 14", "result": 40, "unit": "%"},
      {"measurement": "adenoma multiplicity", "setting": "[2]; 0.05 mg/g of diet Day 1-Day 14", "result": "0.6±0.5", "unit": "lung adenoma/mouse"},
      {"measurement": "reduction of adenoma incidence", "setting": "[2]; 0.5 mg/g of diet Day 1-Day 14", "result": 40, "unit": "%"},
      {"measurement": "reduction of adenoma multiplicity", "setting": "[2]; 0.5 mg/g of diet Day 1-Day 14", "result": 97.1, "unit": "%"},
      {"measurement": "adenoma multiplicity", "setting": "[2]; 0.5 mg/g of diet Day 1-Day 14", "result": "0.6±0.5", "unit": "lung adenoma/mouse"},
      {"measurement": "minimum effective dose", "setting": "[2]", "result": "lower than 0.05 mg/g"}
    ]}
  ]
}
